ChEMBL document CHEMBL1765002, “Inhibitors of the oncogenic transcription factor AP-1 from Podocarpus latifolius” (J Nat Prod, 2011)

Target: Transcription factor Jun (Homo sapiens, UniProt P05412)
Experiment: Inhibition of TPA-induced AP-1 activation in cells expressing beta-lactamase after 18 hrs using FRET substrate by cell-based high-throughput screening assay

Transcription factor Jun, sequence (P05412 whole entry): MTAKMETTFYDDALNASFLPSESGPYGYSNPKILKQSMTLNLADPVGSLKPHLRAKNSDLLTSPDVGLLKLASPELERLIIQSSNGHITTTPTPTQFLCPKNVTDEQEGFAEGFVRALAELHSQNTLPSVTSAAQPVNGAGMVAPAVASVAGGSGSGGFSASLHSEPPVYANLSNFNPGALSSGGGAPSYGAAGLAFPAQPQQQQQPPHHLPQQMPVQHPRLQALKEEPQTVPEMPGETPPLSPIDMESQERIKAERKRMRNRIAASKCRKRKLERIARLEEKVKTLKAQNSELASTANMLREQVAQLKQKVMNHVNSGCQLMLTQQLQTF

CC(C)[C@H]1OC(=O)C=C2[C@]3(C)[C@H]4[C@H](OC(=O)[C@@]4(C)[C@@H](O)[C@H]4O[C@H]43)[C@H]3O[C@]213 [INUMAKILACTONE]
IC50: 4 µM

CC(C)[C@H]1OC(=O)C=C2C1=C[C@H]1OC(=O)[C@@]3(C)CCC[C@@]2(C)[C@@H]13 [NAGILACTONE F]
IC50: 1.5 µM
